Test results from ChEMBL document CHEMBL1201862, “PubChem BioAssay data set” (2004).
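Assay format: 96-well plates, 48-hour exposure. At the GI50, growth is halved.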 Activity calls are given as the source filed them. Cut-off read from the data, not from the text of the source: active = GI50 up to about 1.1 µM and inactive = higher.

Key:
Experiment in all cases: growth of human tumour cells (NCI), 48 h
786-0 = tested on: 786-0
A498 = tested on: A498
EKVX = tested on: EKVX
HCT-15 = tested on: HCT-15
MDA-N = tested on: MDA-N
MOLT-4 = tested on: MOLT-4
Malme-3M = tested on: Malme-3M
NCI-H226 = tested on: NCI-H226
OVCAR-4 = tested on: OVCAR-4
SK-OV-3 = tested on: SK-OV-3
SN12C = tested on: SN12C
SNB-19 = tested on: SNB-19
SNB-75 = tested on: SNB-75
ACHN = tested on: ACHN
MDA-MB-435 = tested on: MDA-MB-435
SF-539 = tested on: SF-539
SK-MEL-5 = tested on: SK-MEL-5
U-251 = tested on: U-251
HCC 2998 = tested on: HCC 2998
SR = tested on: SR

Cc1ccc2c(O)cc(-c3sc4ccccc4c3C)nc2n1
GI50 (786-0): 20.5 µM (inactive)
GI50 (A498): 22.4 µM (inactive)
GI50 (EKVX): 25.5 µM (inactive)
GI50 (HCT-15): 17.7 µM
GI50 (MDA-N): 13.2 µM (inactive)
GI50 (MOLT-4): 26.1 µM (inactive)
GI50 (Malme-3M): 16.7 µM (inactive)
GI50 (NCI-H226): 20.4 µM (inactive)
GI50 (OVCAR-4): 19.1 µM (inactive)
GI50 (SK-OV-3): 21.7 µM (inactive)
GI50 (SN12C): 29 µM (inactive)
GI50 (SNB-19): 29.9 µM (inactive)
GI50 (SNB-75): 17.3 µM (inactive)

N#CCN(CC#N)C1CC=CCC1N(CC#N)CC#N (configuration not stated)
GI50 (786-0): > 100 µM (inactive)
GI50 (ACHN): > 100 µM (inactive)
GI50 (EKVX): > 100 µM (inactive)
GI50 (HCT-15): > 100 µM
GI50 (MDA-MB-435): > 100 µM (inactive)
GI50 (MDA-N): > 100 µM (inactive)
GI50 (MOLT-4): > 100 µM (inactive)
GI50 (Malme-3M): > 100 µM (inactive)
GI50 (NCI-H226): > 100 µM (inactive)
GI50 (OVCAR-4): > 100 µM (inactive)
GI50 (SF-539): > 100 µM (inactive)
GI50 (SK-MEL-5): > 100 µM (inactive)
GI50 (SK-OV-3): > 100 µM (inactive)
GI50 (SN12C): > 100 µM (inactive)
GI50 (SNB-19): > 100 µM (inactive)
GI50 (U-251): > 100 µM (inactive)

CC(=O)O[C@@H]1[C@@H](O)C2=C3[C@]4(C)[C@@H]1C(C)(C)C(=O)C[C@@H]4[C@]3(O)[C@H](OC(C)=O)[C@@]1(C[C@@H]1C)C2=O
GI50 (786-0): 15.6 µM (inactive)
GI50 (A498): 23.4 µM (inactive)
GI50 (ACHN): 18.9 µM (inactive)
GI50 (EKVX): 19.2 µM (inactive)
GI50 (HCC 2998): 15.4 µM (inactive)
GI50 (HCT-15): 15.3 µM
GI50 (MDA-MB-435): 16 µM (inactive)
GI50 (MOLT-4): 26.6 µM (inactive)
GI50 (Malme-3M): 13.5 µM (inactive)
GI50 (OVCAR-4): 19.5 µM (inactive)
GI50 (SF-539): 21.3 µM (inactive)
GI50 (SK-MEL-5): 19.8 µM (inactive)
GI50 (SK-OV-3): 24.2 µM (inactive)
GI50 (SN12C): 18.4 µM (inactive)
GI50 (SNB-19): 21 µM (inactive)
GI50 (SNB-75): 21.8 µM (inactive)
GI50 (U-251): 16 µM (inactive)

COC(=NCCC1=CCCCC1)OC
GI50 (786-0): 81.3 µM (inactive)
GI50 (A498): > 100 µM (inactive)
GI50 (ACHN): > 100 µM (inactive)
GI50 (EKVX): 69 µM (inactive)
GI50 (HCC 2998): 22 µM (inactive)
GI50 (HCT-15): 82 µM
GI50 (MDA-MB-435): 71.6 µM (inactive)
GI50 (MDA-N): 95.3 µM (inactive)
GI50 (MOLT-4): 52.2 µM (inactive)
GI50 (Malme-3M): 31.2 µM (inactive)
GI50 (OVCAR-4): > 100 µM (inactive)
GI50 (SK-MEL-5): 34.4 µM (inactive)
GI50 (SK-OV-3): > 100 µM (inactive)
GI50 (SNB-19): > 100 µM (inactive)
GI50 (SNB-75): 71.6 µM (inactive)
GI50 (U-251): 71.3 µM (inactive)

O=C(Nc1ccccc1)c1cc2c(cc1Cl)SC(NNCCO)=NS2(=O)=O
GI50 (786-0): > 100 µM (inactive)
GI50 (A498): > 100 µM (inactive)
GI50 (ACHN): > 100 µM (inactive)
GI50 (EKVX): > 100 µM (inactive)
GI50 (HCC 2998): > 100 µM (inactive)
GI50 (HCT-15): > 100 µM
GI50 (MDA-MB-435): > 100 µM (inactive)
GI50 (MOLT-4): > 100 µM (inactive)
GI50 (NCI-H226): > 100 µM (inactive)
GI50 (OVCAR-4): > 100 µM (inactive)
GI50 (SF-539): > 100 µM (inactive)
GI50 (SK-MEL-5): > 100 µM (inactive)
GI50 (SK-OV-3): > 100 µM (inactive)
GI50 (SNB-19): > 100 µM (inactive)
GI50 (SNB-75): 99.5 µM (inactive)
GI50 (SR): > 100 µM (inactive)
GI50 (U-251): > 100 µM (inactive)

CCCCCCNC(=O)c1cnc(Cl)cn1
GI50 (786-0): 26.1 µM (inactive)
GI50 (ACHN): 2.36 µM (inactive)
GI50 (EKVX): 5.93 µM (inactive)
GI50 (HCT-15): 2.55 µM
GI50 (MDA-MB-435): 15.6 µM (inactive)
GI50 (MOLT-4): 4.82 µM (inactive)
GI50 (Malme-3M): 16.7 µM (inactive)
GI50 (NCI-H226): 10 µM (inactive)
GI50 (OVCAR-4): 20.6 µM (inactive)
GI50 (SF-539): 17.6 µM (inactive)
GI50 (SK-MEL-5): 16.8 µM (inactive)
GI50 (SK-OV-3): 22.9 µM (inactive)
GI50 (SN12C): 13.3 µM (inactive)
GI50 (SNB-19): 17.5 µM (inactive)
GI50 (SNB-75): 21 µM (inactive)
GI50 (SR): 4.3 µM (inactive)
GI50 (U-251): 11.5 µM (inactive)

COC(=O)[C@](NC(=O)OCc1ccccc1)([C@@H](C)[S+]([O-])c1ccc(C)cc1)C(F)(F)F (some centres not stated)
GI50 (786-0): 52.2 µM (inactive)
GI50 (A498): 31.4 µM (inactive)
GI50 (ACHN): 39.6 µM (inactive)
GI50 (EKVX): 29.2 µM (inactive)
GI50 (HCC 2998): 32.6 µM (inactive)
GI50 (HCT-15): 34.7 µM
GI50 (MDA-MB-435): 33.7 µM (inactive)
GI50 (MOLT-4): 18.7 µM (inactive)
GI50 (Malme-3M): 33 µM (inactive)
GI50 (NCI-H226): 35.2 µM (inactive)
GI50 (OVCAR-4): 20.8 µM (inactive)
GI50 (SK-MEL-5): 16.4 µM (inactive)
GI50 (SK-OV-3): 53.1 µM (inactive)
GI50 (SNB-19): 43 µM (inactive)
GI50 (SNB-75): 36.4 µM (inactive)
GI50 (SR): 22.9 µM (inactive)
GI50 (U-251): 36.8 µM (inactive)

CCc1nc2c(O)ccc(O)c2nc1C
GI50 (786-0): 13.5 µM (inactive)
GI50 (A498): 20.9 µM (inactive)
GI50 (ACHN): 10.7 µM (inactive)
GI50 (EKVX): 17.3 µM (inactive)
GI50 (HCC 2998): 24.6 µM (inactive)
GI50 (HCT-15): 16.4 µM
GI50 (MOLT-4): 3.65 µM (inactive)
GI50 (Malme-3M): 15.8 µM (inactive)
GI50 (NCI-H226): 15.8 µM (inactive)
GI50 (OVCAR-4): 6.75 µM (inactive)
GI50 (SF-539): 17 µM (inactive)
GI50 (SK-MEL-5): 17.5 µM (inactive)
GI50 (SK-OV-3): 20 µM (inactive)
GI50 (SN12C): 16 µM (inactive)
GI50 (SNB-19): 18.9 µM (inactive)
GI50 (SNB-75): 20.8 µM (inactive)
GI50 (SR): 18.2 µM (inactive)
GI50 (U-251): 16.5 µM (inactive)

CC1=C(C(=O)c2ccccc2)C23C(=O)N(c4ccccc4)C(=O)C2=C(O)C=CC3(O)N1 (configuration not stated)
GI50 (786-0): 35 µM (inactive)
GI50 (A498): 40 µM (inactive)
GI50 (ACHN): 15.9 µM (inactive)
GI50 (EKVX): 76.6 µM (inactive)
GI50 (HCC 2998): 26.7 µM (inactive)
GI50 (HCT-15): 24.6 µM
GI50 (MDA-MB-435): 40 µM (inactive)
GI50 (Malme-3M): 25.2 µM (inactive)
GI50 (NCI-H226): 35 µM (inactive)
GI50 (OVCAR-4): 17.8 µM (inactive)
GI50 (SF-539): 47.9 µM (inactive)
GI50 (SK-MEL-5): 17.6 µM (inactive)
GI50 (SN12C): 30.3 µM (inactive)
GI50 (SNB-19): 37.9 µM (inactive)
GI50 (SNB-75): 24.2 µM (inactive)
GI50 (SR): 15.4 µM (inactive)
GI50 (U-251): 28.1 µM (inactive)

CCN(CC)Cc1nc2sc3c(c2c(=O)n1-c1ccccc1)CCCC3
GI50 (786-0): 17.7 µM (inactive)
GI50 (A498): 15.3 µM (inactive)
GI50 (ACHN): 20 µM (inactive)
GI50 (EKVX): 19.8 µM (inactive)
GI50 (HCC 2998): 17.6 µM (inactive)
GI50 (HCT-15): 23.8 µM
GI50 (MDA-N): 19.7 µM (inactive)
GI50 (MOLT-4): 17.4 µM (inactive)
GI50 (Malme-3M): 23.3 µM (inactive)
GI50 (NCI-H226): 15.2 µM (inactive)
GI50 (OVCAR-4): 15.6 µM (inactive)
GI50 (SK-MEL-5): 16.3 µM (inactive)
GI50 (SK-OV-3): 23.7 µM (inactive)
GI50 (SN12C): 19.5 µM (inactive)
GI50 (SNB-19): 35.6 µM (inactive)
GI50 (SNB-75): 18.4 µM (inactive)
GI50 (SR): 34.5 µM (inactive)
GI50 (U-251): 16.9 µM (inactive)

CCC1(c2ccc(N3C(=O)c4cccc5cc([N+](=O)[O-])cc(c45)C3=O)cc2)CCC(=O)NC1=O (configuration not stated)
GI50 (786-0): 7.38 µM (inactive)
GI50 (A498): 10.1 µM (inactive)
GI50 (ACHN): 11.5 µM (inactive)
GI50 (EKVX): 11.7 µM (inactive)
GI50 (HCC 2998): 30.7 µM (inactive)
GI50 (HCT-15): 31 µM
GI50 (MDA-MB-435): 24.3 µM (inactive)
GI50 (MOLT-4): 11.9 µM (inactive)
GI50 (Malme-3M): 20.1 µM (inactive)
GI50 (NCI-H226): 10.9 µM (inactive)
GI50 (OVCAR-4): 12.6 µM (inactive)
GI50 (SF-539): > 10 µM (inactive)
GI50 (SK-MEL-5): 90.4 µM (inactive)
GI50 (SK-OV-3): 15 µM (inactive)
GI50 (SN12C): 6.05 µM (inactive)
GI50 (SNB-19): 35 µM (inactive)
GI50 (SNB-75): 7.05 µM (inactive)
GI50 (U-251): 9.84 µM (inactive)

CC(=O)N1C(NN(C)C)CCN1c1ccccc1 (configuration not stated)
GI50 (786-0): > 10 µM (inactive)
GI50 (EKVX): > 10 µM (inactive)
GI50 (HCC 2998): > 10 µM (inactive)
GI50 (HCT-15): > 10 µM
GI50 (MDA-MB-435): > 10 µM (inactive)
GI50 (MOLT-4): > 10 µM (inactive)
GI50 (Malme-3M): > 10 µM (inactive)
GI50 (OVCAR-4): > 10 µM (inactive)
GI50 (SK-MEL-5): > 10 µM (inactive)
GI50 (SK-OV-3): > 10 µM (inactive)
GI50 (SN12C): > 10 µM (inactive)
GI50 (SNB-75): > 10 µM (inactive)
GI50 (SR): > 10 µM (inactive)
